Where two headings read alike, the source gives them in different places.
What was measured:
[1] = tested on: HCT116; test: MTT cytotoxicity (IC50), HCT116; type: cell-based; settings: Homo sapiens, HCT-116, 72 h, read-out: IN Vitro IC50 (nm) HCT116
Method: (§1) All cell lines were maintained in RPMI-1640 tissue culture medium (TCM, supplemented with antibiotics and 10% fetal bovine serum) and cultured at 37° C. in humidified air containing 5% CO2. To assess the antiproliferative effects of the test compounds, 172 μL of tumor cell suspension (1.45×10^4 cells/ml) were added to each well of a 96-well plate and incubated for 24 h at 37° C. in 5% CO2 in air to allow cells to adhere. Seven 2-fold drug dilutions in TCM/DMSO were performed in triplicate in separate 96-well plates and 28 μL was transferred to the wells containing tumor cells (200 μL final volume/0.1% DMSO). Plates were incubated for 72 h and cell viability was determined by adding 50 μL of warm TCM containing 5 mg/mL MTT (3-[4,5-dimethylthiazol-2-yl]-2,5-diphenyltetrazolium bromide) to each well and incubating for 1 h at 37° C. Plates were processed and the absorbances of the resulting solutions were measured by a plate reader at 570 nm. […] (GraphPad Prism version 4.00 for Windows). Studies were conducted by Taxolog, Inc., Tallahassee, Fla.

[2] = tested on: PANC-1; test: MTT cytotoxicity (IC50), PANC-1; type: cell-based; settings: Homo sapiens, 72 h, read-out: IN Vitro IC50 (nm) Panc
Method: as §1, with “Compound 17932 was tested in four of these cell lines, while the remaining compounds were tested in all of these cell lines. All” for “All”

[3] = tested on: HT29; test: MTT cytotoxicity (IC50), HT29; type: cell-based; settings: Homo sapiens, HT-29, 72 h, read-out: IN Vitro IC50 (nm) HT29
Method: as §1, with “Compound 17932 was tested in four of these cell lines, while the remaining compounds were tested in all of these cell lines. All” for “All”

[4] = tested on: A375; test: MTT cytotoxicity (IC50), A375; type: cell-based; settings: Homo sapiens, A-375
Method: as §1, with “Compound 17932 was tested in four of these cell lines, while the remaining compounds were tested in all of these cell lines. All” for “All”

[5] = tested on: TK-10; test: MTT cytotoxicity (IC50), TK-10; type: cell-based; settings: Homo sapiens, 72 h, read-out: IN Vitro IC50 (nm) TK10
Method: as §1, with “Compound 17932 was tested in four of these cell lines, while the remaining compounds were tested in all of these cell lines. All” for “All”

[6] = tested on: SNB-19; test: MTT cytotoxicity (IC50), SNB-19; type: cell-based; settings: Homo sapiens, 72 h, read-out: IN Vitro IC50 (nm) SNB19
Method: as §1, with “Compound 17932 was tested in four of these cell lines, while the remaining compounds were tested in all of these cell lines. All” for “All”

[7] = tested on: HT29 human tumor xenografts; test: HT29 xenograft study e139 (Example 23); type: in vivo, nude mice
[8] = tested on: human A375 melanoma xenograft; test: A375 xenograft study e209 (Example 27); settings: 30 mg/kg iv q4d × 4; for CR (complete regression) / NTR NTRa/u / NTR NTRm / PR (partial regression) / TFS (tumor-free survivor) / TR (treatment-related death): n=6; for % TGD / Median TTE / T-C: vehicle EL
Method: The endpoint was a tumor volume of 2,000 mm^3 and the study was terminated on Day 56. Efficacy was assessed by tumor growth delay and the number of partial and complete regressions. Animals with a CR that persisted through Day 56 were classified as long-term tumor-free survivors (TFS).

[9] = tested on: BxPC-3 cancer cell line; test: MTT cytotoxicity (IC50), BxPC-3 (Oncodesign); type: cell-based; settings: Homo sapiens
Method: BxPC-3 cancer cell line (Source ATCC) and culture medium were purchased and provided by Oncodesign (France).
Tumor cells (5,000 cells per well) were plated in 96-well flat-bottom microtitration plates (Ref 167008, Batch 083310, Nunc, Dutscher, Brumath, France) and incubated at 37° C. for 24 hours before treatment in 100 μl of drug-free RPMI 1640 medium supplemented with 10% FBS. Tumor cell lines were incubated for 72 hours with 10 concentrations of both test substances and TXT (40 to 0.07 nM using ½ step dilutions). Experiments were repeated three times, each assay being issued from quadruplicate. Control cells were treated with the vehicle alone. At the end of treatments, the cytotoxic activity was evaluated by a MTT assay. These studies were conducted at Oncodesign, France.

[10] = tested on: HT29 human tumor xenografts; test: HT29 xenograft study e210, oral and i.v. (Example 25); settings: for CR (complete regression) / NTR NTRa/u / NTR NTRm / PR (partial regression) / TFS (tumor-free survivor) / TR (treatment-related death): n=6
Text: The formulation for oral studies was an ethanol and Cremophor formulation while the formulation for compound 18365 and compound 19244 dosed i.v. was 5% ethanol and 95% Liposyn II 20%.

[11] = MTT, 72 h, read-out: IN Vitro IC50 (nm) A375
[12] = Resistance MRP9, read-out: A375 Melanoma (Table 4, quantity not named; IC50 values as Table 2)

CCC(=O)O[C@H]1C(=O)[C@@]2(C)C([C@H](OC(=O)c3ccccc3)[C@]3(O)C[C@H](OC(=O)[C@H](O)[C@@H](NC(=O)OC4CCCC4)c4cccs4)C(C)=C1C3(C)C)[C@]1(OC(C)=O)CO[C@@H]1C[C@@H]2O (stereo partly shown) [Compound 18926]
IC50 [1]: 0.3 nM | IC50 [2]: 0.5 nM | IC50 [3]: 0.4 nM | IC50 [4, 11]: 0.5 nM | IC50 [4, 12]: 0.5 nM | IC50 [5]: 0.3 nM | IC50 [6]: 1 nM | MTV (Day 61) ([7]; 20 mg/kg i.v. q4d×4): 83 mm^3 | PR responses ([7]; 20 mg/kg i.v. q4d×4, six mice): 5 | Day 51 mm^3 (tumor size) ([7]; 20 mg/kg iv q4d × 4): 142.3 mm^3 | Day 54 mm^3 (tumor size) ([7]; 20 mg/kg iv q4d × 4): 147 mm^3 | Max. BW Loss %; Day ([7]; 20 mg/kg iv q4d × 4): −20.7%; Day 16 | Number of Death NTR ([7]; 20 mg/kg iv q4d × 4, N=6): 0 | Number of Death TR ([7]; 20 mg/kg iv q4d × 4, N=6): 0 | BW Nadir [8]: 13.3% (18) | MTV(n), Day 56 [8]: 0.00 (6) mm^3 | CR (complete regression) [8]: 6 | NTR NTRa/u [8]: 0 | NTR NTRm [8]: 0 | PR (partial regression) [8]: 0 | TFS (tumor-free survivor) [8]: 6 | TR (treatment-related death) [8]: 0 | % TGD [8]: 210.08% | Median TTE [8]: 56 days | T-C [8]: 37.94 days

CCC(=O)O[C@H]1C(=O)[C@@]2(C)C([C@H](OC(=O)c3ccccc3)[C@]3(O)C[C@H](OC(=O)[C@H](O)[C@@H](NC(=O)OC4CCC4)c4cccs4)C(C)=C1C3(C)C)[C@]1(OC(C)=O)CO[C@@H]1C[C@@H]2O (stereo partly shown) [Compound 19244]
IC50 [1]: 0.4 nM | IC50 [2]: 1.2 nM | IC50 [3]: 0.6 nM | IC50 [4, 11]: 0.6 nM | IC50 [4, 12]: 0.5 nM | IC50 [5]: 0.4 nM | IC50 [6]: 0.9 nM | IC50 ([9]; BXPC-3, 72 h, Exp 1, MTT, 72 hours, read-out: IC50 (nM) BxPC-3): 0.53 nM | IC50 ([9]; BXPC-3, 72 h, Exp 2, MTT, 72 hours, read-out: IC50 (nM) BxPC-3): 0.66 nM | IC50 ([9]; BXPC-3, 72 h, Exp 3, MTT, 72 hours, read-out: IC50 (nM) BxPC-3): 1.03 nM | IC50 ([9]; BXPC-3, mean of 3 experiments, read-out: IC50 Mean ± SD (nM) BxPC-3): 0.74 ± 0.26 nM | % TGD ([10]; 30 mg/kg iv q4d × 4): 214.3% | BW Nadir ([10]; 30 mg/kg iv q4d × 4): 11.1% (16) | MTV (n), Day 60 ([10]; 30 mg/kg iv q4d × 4): 36.00 (6) mm^3 | Median TTE ([10]; 30 mg/kg iv q4d × 4): 60 days | T-C ([10]; 30 mg/kg iv q4d × 4): 40.91 days | CR (complete regression) ([10]; 30 mg/kg iv q4d × 4): 1 | NTR NTRa/u ([10]; 30 mg/kg iv q4d × 4): 0 | NTR NTRm ([10]; 30 mg/kg iv q4d × 4): 0 | PR (partial regression) ([10]; 30 mg/kg iv q4d × 4): 5 | TFS (tumor-free survivor) ([10]; 30 mg/kg iv q4d × 4): 1 | TR (treatment-related death) ([10]; 30 mg/kg iv q4d × 4): 0 | % TGD ([10]; 60 mg/kg po q4d × 4): 214.3% | BW Nadir ([10]; 60 mg/kg po q4d × 4): −8.5% (16) | MTV (n), Day 60 ([10]; 60 mg/kg po q4d × 4): 0.25 (6) mm^3 | Median TTE ([10]; 60 mg/kg po q4d × 4): 60 days | T-C ([10]; 60 mg/kg po q4d × 4): 40.91 days | CR (complete regression) ([10]; 60 mg/kg po q4d × 4): 4 | NTR NTRa/u ([10]; 60 mg/kg po q4d × 4): 0 | NTR NTRm ([10]; 60 mg/kg po q4d × 4): 0 | PR (partial regression) ([10]; 60 mg/kg po q4d × 4): 2 | TFS (tumor-free survivor) ([10]; 60 mg/kg po q4d × 4): 4 | TR (treatment-related death) ([10]; 60 mg/kg po q4d × 4): 0 | activity in the HT29 xenograft tumor model ([10]; every four day schedule for four doses): oral and IV activity | BW Nadir [8]: 10.4% (18) | MTV(n), Day 56 [8]: 0.00 (6) mm^3 | CR (complete regression) [8]: 6 | NTR NTRa/u [8]: 0 | NTR NTRm [8]: 0 | PR (partial regression) [8]: 0 | TFS (tumor-free survivor) [8]: 6 | TR (treatment-related death) [8]: 0 | % TGD [8]: 210.08% | Median TTE [8]: 56 days | T-C [8]: 37.94 days
